We go through one compound from patent publication US9511086B2, “Method for improving immune system function by administering agents that inhibit DNA-dependent protein kinase-directed apoptosis” (The Board of Trustees of the Leland Stanford Junior …, priority 2010, dated 2016).

Test [1] has as its system CD4+CD45RO− T cells from RA patients. The experiment in a line: T-cell apoptosis by flow cytometry staining for PI, RA T cells. In kind it is cell-based, human. The protocol: FIG. 5. Inhibition of DNA-PKcs activity protects RA T cells from apoptosis. CD4+CD45RO− T cells were isolated from 6 control donors and 7 RA patients. Cells were maintained in culture without stimulation for 48 h and then were treated with the DNA-PKcs inhibitor IC86621 (50 nM, 100 nM) or vehicle for 24 h. Cells were harvested and (A) T-cell apoptosis was measured by flow cytometry staining for PI. Representative cytometric data from one patient and one control are shown. (B) Frequencies of PI-positive T-cells in the absence and presence of the DNA-PKcs inhibitor from 6 controls and 7 RA patients are presented as mean±SEM.
FIG. 6. Silencing of the DNA-PKcs gene reduces apoptosis in RA T cells. CD4+CD45RO− T cells were purified from 3 control donors and 3 RA patients and transfected with control or DNA-PKcs specific siRNA oligonucleotides by nucleofection. (A, B) Twenty-four hours after transfection, DNA-PKcs transcript levels were quantified by qPCR, and DNA-PKcs protein levels were detected by Western blotting. (C) T-cell apoptosis was analyzed by staining for PI. Representative data from one patient and one control are shown. (D) Cell apoptosis from 3 control and 3 RA samples are presented as mean±SEM.
FIG. 7. […] (A) CD4+CD45RO− T cells were isolated and cultured in the presence of the indicated enzyme inhibitors for 24 h. T-cell apoptosis was quantified through flow cytometry staining for PI. (B) Cells were maintained in culture without stimulation for 48 h and then were treated with the JNK inhibitor. PI-positive T cells were measured after 24 h of treatment with the JNK inhibitor II (5 μM or 10 μM) or vehicle. Frequencies of apoptotic T cells from 6 controls and 7 RA patients are presented as mean±SEM. (C) Representative flow cytometry results from one control and one patient. (D) Flow cytometry analysis of phosphorylated JNK levels in control and RA T cells after culturing without mitogenic stimulation for 72 h. Representative data from one patient and one control are presented. (E) Expression of pJNK protein in n=6 RA and n=6 control samples at 72 h is given as MFI of FITC-pJNK. (F) Flow cytometry analysis of phosphorylated JNK levels in freshly isolated control and RA naïve CD4 T cells. Expression of pJNK protein in n=7 RA and n=7 control samples at day 0 is given as MFI of FITC-pJNK. (G) Quantification of JNK and pJNK protein expression at 72 h by Western blotting. (H) Relative expression levels of pJNK were quantified by measuring band intensities adjusted by total JNK in 6 RA patients and 6 control donors. Data are presented as mean±SEM. (I) CD4+CD45RO− T cells were purified from RA donors and transfected with control or DNA-PKcs-specific siRNA oligonucleotides by nucleofection. Twenty-four hours after transfection, DNA-PKcs and pJNK protein levels were detected by Western blotting. A representative blot from three independent experiments is shown.
Peripheral blood mononuclear cells (PBMC) were separated from whole blood with Lymphocyte Separation Medium (Mediatech Inc., Herndon, Va.). CD45RO^− cells were negatively selected with microbeads (Miltenyi Biotec Inc., Auburn, Calif.), and the naïve CD4^+CD45RO^− population was subsequently selected with CD4 microbeads (autoMACS, Miltenyi Biotec Inc.).
CD4^+CD45RO^− T cells were maintained in a resting state in DMEM without mitogenic stimulation for three days. In selected experiments, T-cell homeostatic cytokines were supplemented. To test for the role of signaling networks in mediating apoptosis, the following inhibitors were added to the cultures at day 0: DNA-PKcs inhibitor IC86621 (Sigma-Aldrich, St. Louis, Mo.), JNK inhibitor II (Calbiochem, La Jolla, Calif.), p38 inhibitor (Alexis Biochemicals, Plymouth Meeting, Pa., SB203580), CaM inhibitor (Calbiochem), NE-KB inhibitor (Calbiochem), and AKT inhibitor (Calbiochem). […]

The target of test [2] is Rous sarcoma tyrosine kinase (Homo sapiens, UniProt P12931). The conditions noted are these: concentrations of up to 100 μM; cited from earlier work.
Rous sarcoma tyrosine kinase, sequence (P12931 whole entry): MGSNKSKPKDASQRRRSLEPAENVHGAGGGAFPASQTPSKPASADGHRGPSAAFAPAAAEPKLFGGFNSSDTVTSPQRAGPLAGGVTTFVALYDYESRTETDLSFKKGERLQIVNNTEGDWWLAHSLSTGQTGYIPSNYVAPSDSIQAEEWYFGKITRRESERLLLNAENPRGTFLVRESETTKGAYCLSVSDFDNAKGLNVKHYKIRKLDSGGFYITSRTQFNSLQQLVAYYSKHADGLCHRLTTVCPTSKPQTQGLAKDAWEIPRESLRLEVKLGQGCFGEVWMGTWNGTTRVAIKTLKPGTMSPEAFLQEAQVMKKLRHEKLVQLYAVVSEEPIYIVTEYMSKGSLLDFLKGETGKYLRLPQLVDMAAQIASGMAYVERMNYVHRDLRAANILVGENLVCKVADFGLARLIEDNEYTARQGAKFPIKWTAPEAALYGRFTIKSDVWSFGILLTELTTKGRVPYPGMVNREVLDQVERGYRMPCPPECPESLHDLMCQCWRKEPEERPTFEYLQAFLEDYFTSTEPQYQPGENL
For test [3], the target named is T1, checkpoint protein kinase 1 (Homo sapiens, UniProt O14757).
T1 sequence (O14757 1-476): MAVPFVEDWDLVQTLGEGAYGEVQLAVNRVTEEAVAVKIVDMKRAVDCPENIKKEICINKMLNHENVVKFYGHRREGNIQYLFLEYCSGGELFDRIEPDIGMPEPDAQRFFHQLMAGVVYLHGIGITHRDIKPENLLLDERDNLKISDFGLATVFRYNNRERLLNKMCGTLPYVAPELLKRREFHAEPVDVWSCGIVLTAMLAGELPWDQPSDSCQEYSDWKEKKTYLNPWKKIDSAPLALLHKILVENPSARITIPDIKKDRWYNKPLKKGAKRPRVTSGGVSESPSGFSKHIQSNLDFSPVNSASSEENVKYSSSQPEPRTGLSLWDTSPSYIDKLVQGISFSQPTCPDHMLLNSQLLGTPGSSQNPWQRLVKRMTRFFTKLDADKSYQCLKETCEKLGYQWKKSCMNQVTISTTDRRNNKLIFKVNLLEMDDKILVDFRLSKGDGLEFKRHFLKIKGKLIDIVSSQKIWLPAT
The conditions noted are these: concentrations of up to 100 μM; cited from earlier work.

A further test deals with casein kinase 1. The conditions noted are these: concentrations of up to 100 μM; cited from earlier work.

In the case of `CC(=O)c1ccc(N2CCOCC2)cc1O` [IC86621, 1-(2-hydroxy-4-morpholin-4-ylphenyl)ethanone], the “protection of RA T cells from apoptosis, dose dependence” value in test [1] (50 nM, 100 nM) is “dose-dependent”. Further, in test [1] (RA T cells), the “doses at which T cell survival was improved” value was in the range of 50 to 100 nM. In test [1] (RA T cells, 48 h culture then inhibitor (50 nM, 100 nM) for 24 h, PI-positive cells), the “survival rates among RA T cells” value is reported as “improved survival rates”. For the same compound, the “dose sufficient to normalize apoptotic susceptibility (PI-positive cells reduced to levels of control T cells)” value in test [1] (RA T cells, 72 h ex vivo culture) is 100 nM. Besides, in test [2], the “activity against Rous sarcoma tyrosine kinase” value is listed as “neither activity”. Besides, in test [3], the “activity against checkpoint protein kinase 1” value is recorded as “neither activity”. In addition, the “activity against casein kinase 1” value in the test with casein kinase 1 is listed as “neither activity”.
